# Measurements reported in publication PMC5920098, “Identification of the allosteric P2X7 receptor antagonist [^11C]SMW139 as a PET tracer of microglial activation” (Scientific Reports, 2018).
# Entries after “also recorded” stand apart in the source; their conditions may differ.
# Assays:
# hP2X7R = target: T1, hP2X7R (Homo sapiens, UniProt Q99572); assay: PET imaging in rats locally overexpressing hP2X7R in right striatum; type: in vivo, rat; conditions: PET
# T1 construct: 3xFLAG (3flag); expressed in transfected cells; host or cells: rat striatum (female Wistar rats), transduced in vivo with the AAV vector rAAV_3flag-hP2X7R
# T1 sequence (Q99572 1-595): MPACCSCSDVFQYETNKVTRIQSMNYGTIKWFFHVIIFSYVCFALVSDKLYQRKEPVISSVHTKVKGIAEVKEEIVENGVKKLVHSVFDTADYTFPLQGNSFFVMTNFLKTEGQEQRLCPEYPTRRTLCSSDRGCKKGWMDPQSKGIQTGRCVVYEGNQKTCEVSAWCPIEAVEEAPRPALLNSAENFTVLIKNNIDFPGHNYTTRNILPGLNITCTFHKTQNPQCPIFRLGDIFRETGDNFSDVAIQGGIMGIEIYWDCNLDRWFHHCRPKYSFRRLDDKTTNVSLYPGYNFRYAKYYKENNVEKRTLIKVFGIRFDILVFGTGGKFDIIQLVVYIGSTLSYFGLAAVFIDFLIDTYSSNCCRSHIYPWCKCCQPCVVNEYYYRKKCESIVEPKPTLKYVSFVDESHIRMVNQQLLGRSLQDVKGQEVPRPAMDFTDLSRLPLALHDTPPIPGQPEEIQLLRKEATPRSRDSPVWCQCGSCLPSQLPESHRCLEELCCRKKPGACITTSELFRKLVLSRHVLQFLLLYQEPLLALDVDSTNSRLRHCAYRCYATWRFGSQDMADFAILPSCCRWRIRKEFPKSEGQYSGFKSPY
# Procedure: Uptake of [^11C]SMW139 was 1.5-fold higher in the right striatum compared with the contralateral striatum at 4–15 min p.i. (n = 3; Fig. 6A,B, and Supplementary Figure S5, 5 weeks after vector injection). […] (2.85 ± 0.69 vs. 2.30 ± 0.36 in contralateral striatum) throughout the remainder of the scanning time.
# Female rats were injected with the hP2X7R expressing vector in the right striatum, and eGFP expressing vector in the left striatum, which is described in detail in the Supplementary Information. […] To confirm stable expression of hP2X7R during the time period in which PET scanning studies were conducted, autoradiography experiments were performed both prior to and following PET experiments. In a dedicated small animal PET scanner (nanoPET, Mediso Ltd.), 60 min dynamic PET scans were acquired immediately after intravenous administration of 16–20 MBq of [^11C]SMW139. […] 45 min prior to tracer injection. After data reconstruction (details in Supplementary Information), images were analysed using the freely available AMIDE software (version 0.9.2; http://amide.sourceforge.net). ROIs were drawn around ipsi- and contralateral striata. Results are expressed as standardised uptake values (SUVs) and error bars indicate standard deviation.
# Stereotactic injection of viral vector […]
# to a 10 µL Hamilton syringe. […]
# dorsoventral -0.64 cm relative to bregma. […]
# minutes before removing it slowly.
# Rats were sacrificed for in
# Dynamic PET imaging was performed using dedicated small animal NanoPET/CT and NanoPET/MR scanners (Mediso Ltd., Budapest, Hungary) which are equipped with identical PET components. […]
# anaesthetised with 4% and 2% isoflurane in oxygen (1 L·min-1) for induction and maintenance, respectively. Rats were positioned on the scanner bed and their respiratory rate was monitored during the entire scan, and anaesthesia was adjusted whenever required. Dynamic PET scans were acquired immediately after intravenous (i.v.) administration of 16-20 MBq of [11C]SMW139 via the tail vein. For […]
# hydroxypropyl)-β-cyclodextrin in water for injection 45 min prior to tracer injection. PET scans were acquired in list mode and rebinned into the following frame sequence: 4 × 5, 4 x 10, 2 x 30, 3x 60, 2 x 300, 1 x 600, 1 x 900 and 1 x 1200 s. Reconstruction was performed using a fully 3-dimensional reconstruction algorithm (Tera-TomoTM, Mediso Ltd.) with 4 iterations and 6 subsets, and an isotropic 0.4 mm voxel dimension. Images were analysed using the freely available AMIDE software (version 0.9.2; http://amide.sourceforge.net). 3D ellipsoid ROIs (dimensions x = 3.4 mm, y = 3.6 mm, z = 2.9 […]
# mm) were drawn within ipsi- and contralateral striata. Results are expressed as standardised uptake values (SUVs) and error bars indicate standard deviation. SUV were calculated as follows, with cimg in MBq/mL, injected dose in MBq and bodyweight in kg:
# An unpaired two-tailed t-test was used for statistical analysis of PET data, which was performed using […]
# allowed to recover for 1 week after scanning. After 1 week of recovery following the final scan (12 weeks after stereotactic vector injection) animals were sacrificed, and brains were excised and stored […]
# Extended single microdose toxicity study
# A single microdose toxicity study according to EMEA guideline EMA/CPMP/ICH/286/1995 (December 2009) was performed in healthy Wistar rats at a 1000 times higher dose than the maximal dose […]
# minimum specific activity of 18.5 GBq·µmol-1). Animals were allowed to acclimatise for 10 days, group-housed and in an enriched environment with food and water available ad libitum, and with a 12-hour light-dark cycle in a temperature controlled room.
# P2X7R = target: T2, P2X7R (Homo sapiens, UniProt Q99572); assay: In vitro autoradiography on post mortem human brain tissue (AD patients and controls); type: binding; conditions: tracer 28 nM
# T2 construct: Snap frozen human post-mortem; tissue The Netherlands Brain Bank; host or cells: post mortem human temporal cortex (AD patients and non-neurological controls)
# T2 sequence (Q99572 1-595): T1 sequence (Q99572 1-595)
# mouse P2X7R = tested on: mouse P2X7R; set-up: method as in PMID 28841278; conditions: cited from earlier work
# [1] = LogDoct,7.4 by shake-flask method (1-octanol / 0.2 M phosphate buffer pH 7.4); type: physicochemical; conditions: mean ± SD, read-out: LogDoct,7.4 (n = 3)
# Procedure: The LogDoct,7.4 of analogues [^11C]1–3 and [^11C]SMW139 ([^11C]4) was determined using the shake-flask method (partitioning between 1-octanol and 0.2 M phosphate buffer (pH 7.4)). Determined LogDoct,7.4 values (Table 1) show the same trend as LogD values reported by Wilkinson et al.[10].
# LogDoct,7.4 of [^11C]1–3 and [^11C]SMW139 was determined by the shake-flask method as described in the Supplementary Information.
# Analytical HPLC chromatogram of [11C]SMW139 formulation (Platinum C18, MeCN/H2O/TFA 45:55:0.1, 1 […]
# Determination of LogDoct,7.4
# The distribution of radiolabelled compound between 1-octanol and 0.2 M phosphate buffer (pH = 7.4) was measured at room temperature. Briefly, 1 mL of a 20 MBq·mL-1 solution of radiolabelled compound in 0.2 M phosphate buffer (pH = 7.4) was mixed with 1 mL of 1-octanol for 1 min using a vortex mixer. After a settling period of 30 min, three samples of 100 μL were taken from both layers.
# All samples were counted for radioactivity in a Wallac Universal Gammacounter 1282 (PerkinElmer, Waltham, MA, USA). The LogDoct,7.4 value was calculated according to LogDoct,7.4 = 10Log(Aoct/Abuffer), where Aoct and Abuffer represent average radioactivity counts of the three 1-octanol and the three […]
# (1 picture or pasted object on this page, not shown here)
smiles,measurement,setting,value
[11CH3]Oc1ccc(Cl)c(C(=O)NCC23CC4(F)CC(F)(CC(F)(C4)C2)C3)c1 [[^11C]SMW139],Time of peak of ipsi- to contralateral striatum ratio after tracer injection,hP2X7R,≤ 15 min
same,Uptake in right (hP2X7R) striatum compared with contralateral striatum,"hP2X7R; 4–15 min p.i., n = 3, 5 weeks after vector injection",1.5 fold
same,Uptake in rAAV_3flag-hP2X7R striatum after pre-treatment with JNJ-47965567,"hP2X7R; 2 min p.i., JNJ-47965567 30 mg·kg^−1 s.c. 45 min prior to tracer, n = 3, 11 weeks after vector injection",2.40 ± 0.22 SUV
same,Uptake in contralateral striatum,"hP2X7R; 2 min p.i., baseline",2.30 ± 0.36 SUV
same,Uptake in rAAV_3flag-hP2X7R striatum,"hP2X7R; 2 min p.i., baseline",2.85 ± 0.69 SUV
same,Tracer binding in white matter vs grey matter,P2X7R; AD patients and controls,Higher tracer binding was observed in white matter compared with grey matter; also recorded: higher in white matter than in grey matter
same,Tracer binding in AD patients vs non-neurological controls,"P2X7R; temporal cortex, grey and white matter",does not differ significantly; also recorded: did not differ significantly; also recorded: no significant differences
same,Affinity lower for mouse P2X7R compared with hP2X7R,mouse P2X7R,6 fold
same,logD,[1],2.7 ± 0.01
